The source of these data is US6924298B2, “2-(3,5-Disubstituted-4-pyridyl)-4-(thienyl, thiazolyl or arylphenyl)-1,3-oxazoline compounds” (Dow AgroSciences LLC, priority 2000, dated 2005).

What all share (type): in vivo
The subject of experiment [1] is tobacco budworm (Heliothis virescens). The experiment in a line: Insecticidal test for tobacco budworm, treated cotton cotyledon leaf disc. The conditions noted are these: Heliothis virescens, foliar, 120 h; 400 ppm, leaf-dip cotton cotyledon disc, 2nd instar larvae, 5 days; read-out: TBW: activity at 400 ppm against tobacco budworm (% Control rating). As for the experimental part:
(§1) Insecticidal Test for Tobacco Budworm (Heliothis virescens), Beet Armyworm (Spodoptera exigua), and Cabbage Looper (Trichoplusia ni).
(§2) To prepare the test solution, the test compound was formulated at 400 ppm in 7.5 mL of 2 acetone:1 tap water. 250 μL of the test solution was pipetted upon the surface of 8 mL of lepidopteran diet (modified Shorey) contained in each of five one-ounce plastic cups (one cup=1 replication). A second-instar beet armyworm was placed upon the treated diet in each cup once the solvent had air-dried. The solutions remaining after completing applications to the one-ounce cups were then used as leaf-dip solutions for 3.5 cm leaf discs cut from cabbage leaves and cotton cotyledons. Five discs of each type of plant were dipped until thoroughly coated into each rate of each compound (=5 replications of each treatment). After air-drying, the treated leaf discs were placed individually into one-ounce plastic cups. Each dried, treated cotton cotyledon disc was infested with a 2nd instar tobacco budworm larva, and each cabbage leaf disc was infested with a 2nd instar cabbage looper larva. Cups containing the treated substrates and larvae were capped and then held in a growth chamber at 25° C., 50-55% RH, and 14 hr light: 10 hr dark for 5 days.

Experiment [2] has as its system beet armyworm (Spodoptera exigua). The experiment in a line: Insecticidal test for beet armyworm, treated lepidopteran diet. The conditions noted are these: Spodoptera exigua, 120 h; 400 ppm, treated diet surface, second-instar larvae, 5 days; read-out: BAW: activity at 400 ppm against beet armyworm (% Control rating). On the procedure: as §1, §2
In experiment [3] the test system is cotton aphid (Aphis gossypii). Nature of the experiment: Insecticidal test for cotton aphid, spray on infested squash cotyledons. Conditions: Aphis gossypii, 72 h; 50 ppm spray, squash cotyledons, all life stages, 3 days; read-out: CA: activity at 50 ppm against cotton aphid (% Control rating). As for the experimental part:
Insecticidal Test for Cotton Aphid (Aphis gossypii)
To prepare spray solutions, 1 mg of each test compound was dissolved into 1 mL of a 90:10 acetone:ethanol solvent. This 1 mL of chemical solution was added to 19 mL of water containing 0.05% Tween 20 surfactant to produce a 50 ppm spray solution.
Squash cotyledons were infested with cotton aphid (all life stages)16-20 hours prior to application of spray solution. The solution was sprayed on both sides of each infested squash cotyledon (0.5 mL×2 each side) with a sweeping action until runoff. The plants were allowed to air dry and held for 3 days in a controlled room at 26° C. and 40% RH after which time the test was graded. Grading was by actual count using a dissecting microscope and comparison of test counts to the untreated check. Results are given in Tables 1-4 as percent control based on population reduction versus the untreated.

In experiment [4] the test system is cabbage looper (Trichoplusia ni). The experiment in a line: Insecticidal test for cabbage looper, treated cabbage leaf disc. The conditions noted are these: Trichoplusia ni, foliar, 120 h; 400 ppm, leaf-dip cabbage leaf disc, 2nd instar larvae, 5 days; read-out: CL: activity at 400 ppm against cabbage looper (% Control rating). On the procedure:
as §1, §2

Experiment [5] deals with two-spotted spider mite (Tetranychus urticae). The experiment in a line: Insecticidal test for two-spotted spider mite, ovicide method on cotton leaf discs. Conditions: Tetranychus urticae, foliar, 144 h, hatched larvae after 6 days, read-out: SM: activity against two-spotted spider mite (% Control rating). As for the experimental part: Insecticidal Test for Two-Spotted Spider Mite (Tetranychus urticae) Ovicide Method: Ten adult female two-spotted spider mites were placed on eight 2.2 cm leaf discs of cotton leaf, allowed to oviposit over 24 hours, and thereafter removed. […] Discs were placed on an agar substrate and held at 24° C. and 90% RH for 6 days.

For experiment [6], the system named is sweetpotato whitefly (Bemisia tabacia). The experiment in a line: Insecticidal test for sweetpotato whitefly, spray on cotton plants. Conditions: 312 h, 200 ppm spray, large nymphs counted after 13 days, read-out: WF: activity at 200 ppm against whitefly (% Control rating). As for the experimental part:
Insecticidal Test for Sweetpotato Whitefly (Bemisia tabacia)
Four mg of each test compound was dissolved by adding 4 mL of a 90:10 acetone:ethanol solvent mixture to the vial containing the sample compound. This solution was added to 16 mL of water containing 0.05% Tween 20 surfactant to produce 20 mL of a 200 ppm spray solution.
Five-week-old cotton plants reared in a greenhouse were stripped of all foliage except for the two uppermost true leaves that were greater than 5 cm in diameter.
These plants were then placed into a laboratory colony of whiteflies for two days for oviposition by the colony females. All whiteflies were then removed from the test plants with pressurized air. The spray solution was then applied to the test plants with a hand-held syringe fitted with hollow cone nozzle. One mL of spray solution was applied to each leaf top and bottom for a total of 4 mL per plant. Four replications of each test compound utilized a total of 16 mL spray solution. Plants were air dried and then placed in a holding chamber (28° C. and 60% RH) for 13 days. Compound efficacy was evaluated by counting, under an illuminated magnifying glass, the number of large nymphs (3rd-4th instar) per leaf.
Percent control based on reduction of large nymphs of a test compound compared to solution-only (no test compound) sprayed plants is reported in Tables 1-4.

For `Cc1cc(-c2ccc(OC(F)(F)F)cc2)ccc1C1COC(c2c(Cl)cncc2Cl)=N1` (stereo not drawn) [Compound 44, 2-(3,5-dichloro-4-pyridinyl)-4-(4-(4-trifluoromethoxyphenyl)-2-methylphenyl)-oxazoline], the pest or weed control at 400 ppm in experiment [1], in experiment [2] and in experiment [4] was 90 to 100% each time. For the same compound, the pest or weed control at 50 ppm in experiment [3] fell in the range of 80 to 89%. The pest or weed control in experiment [5] fell in the range of 90 to 100%. Moreover, the pest or weed control at 200 ppm in experiment [6] lay within 50 to 59%.
